Results: paper PMC7110753, “Dafachronic acid and temperature regulate canonical dauer pathways during Nippostrongylus brasiliensis infectious larvae activation” (Parasites & Vectors, 2020)

Tests used:
Cel-DAF-12 (DAF-12) = Cel-DAF-12 (DAF-12) (Caenorhabditis elegans, UniProt G5EFF5); assay: co-transfection luciferase reporter assay in HEK293 cells (agonist, dose response in Fig. 1b); type: cell-based
[1] = tested on: Nbr-DAF-12 (DAF-12 nuclear hormone receptor); assay: co-transfection luciferase reporter assay in HEK293 cells (agonist)

Cel-DAF-12 (DAF-12), sequence (G5EFF5 whole entry): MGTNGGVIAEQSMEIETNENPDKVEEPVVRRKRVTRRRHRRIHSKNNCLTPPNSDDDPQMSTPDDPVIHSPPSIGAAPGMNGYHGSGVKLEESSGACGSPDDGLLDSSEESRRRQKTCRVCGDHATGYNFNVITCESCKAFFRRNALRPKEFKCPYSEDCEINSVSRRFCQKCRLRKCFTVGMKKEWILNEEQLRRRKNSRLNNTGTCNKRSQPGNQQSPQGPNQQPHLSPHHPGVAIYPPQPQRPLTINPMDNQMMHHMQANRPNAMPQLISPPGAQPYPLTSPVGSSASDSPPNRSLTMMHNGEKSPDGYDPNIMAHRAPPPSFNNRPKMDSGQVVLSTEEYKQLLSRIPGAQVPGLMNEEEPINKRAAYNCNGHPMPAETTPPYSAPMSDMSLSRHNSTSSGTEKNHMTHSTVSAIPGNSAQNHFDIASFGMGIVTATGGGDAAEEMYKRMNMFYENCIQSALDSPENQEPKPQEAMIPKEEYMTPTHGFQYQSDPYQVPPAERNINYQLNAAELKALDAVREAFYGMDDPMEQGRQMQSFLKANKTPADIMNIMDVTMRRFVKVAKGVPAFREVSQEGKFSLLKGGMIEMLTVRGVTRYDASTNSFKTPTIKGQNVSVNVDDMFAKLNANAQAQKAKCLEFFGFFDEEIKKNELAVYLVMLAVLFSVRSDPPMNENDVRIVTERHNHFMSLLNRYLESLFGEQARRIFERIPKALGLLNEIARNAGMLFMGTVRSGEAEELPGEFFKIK

## Δ7-dafachronic acid
Cel-DAF-12 (DAF-12)
  co-transfection luciferase reporter assay in HEK293 cells (agonist, dose respons): responds more weakly to Δ7-dafachronic acid than DAF-12 from either the canine hookworm A. caninum (Aca-DAF-12) or the free-living C. elegans
[1]
  EC50: 115 nM
